# Experimental data reported in patent publication US20110039762A1, “TARGETED ANTIMICROBIAL MOIETIES” (C3 JIAN, INC., priority 2009, published 2011).
# Entries after “also recorded” stand apart in the source; their conditions may differ.
# What was measured:
# [1] = system: MRSA; assay: Kill or inhibit growth/proliferation; morphology, biofilm and growth disruption (Tables 5, 6); assay type: cell-based, Methicillin-resistant Staphylococcus aureus; parameters: key: A: Peptide aggregates; B: Less hyphal formation; Clumps; Diffuse clumps and small polyps; F: Diffuse growth; H: Thin; I: Growth inhibition; Microcolony formation; Rippled; Small polyps; Thick; W: Halo formation on top, microlonies on bottom; also: test concentration or dose not given here
# [2] = system: S. epidermidis; assay: as above; assay type: cell-based, Staphylococcus epidermidis; parameters: key: A: Peptide aggregates; B: Less hyphal formation; Clumps; Diffuse clumps and small polyps; F: Diffuse growth; H: Thin; I: Growth inhibition; Microcolony formation; Rippled; Small polyps; Thick; W: Halo formation on top, microlonies on bottom; also: test concentration or dose not given here
# [3] = system: microorganisms (e.g., bacteria, yeasts, fungi); assay: Targeting peptide binding to target microorganisms (Table 3); details: preferably 1x PBS
# [4] = system: microorganisms; assay: Peptides having multiple activities (targeting/binding, antimicrobial, growth or phenotype altering)
# Source text: In certain embodiments, peptides described herein can have multiple activities. Thus for example, a peptide can have both binding/targeting activity and antimicrobial activity. Such peptides can be used, e.g., in a chimeric construct, for any or all of these properties. Thus, for example, a peptide designated “B” in Table 8 can be used as a targeting peptide. If it is also designated G or M it can also be used for antimicrobial activity.
# [5] = microorganism the targeting peptide binds, binding in aqueous buffers varied by peptide solubility
# [6] = microorganism(s) the targeting peptide binds, binding in aqueous buffers depending on peptide solubility
Substance,"Organism, effect [1]","Organism, effect [2]","Target(s) [3, 5]",Activities [4],"Target(s) [3, 6]","Target(s) ([3]; microorganism(s) the targeting peptide binds, peptide binding conducted in aqueous buffers varied by peptide solubility)"
PF-024: peptide having multiple activities (chain 1 DLRKAK; chain 2 DLRKAK; Peptide with targeting and/or antimicrobial activity),MRSA (M),S. epidermidis (D),M. luteus and C. albicans and MRSA and E. faecalis and C. jeikeium,G B,,
PF-027: peptide having multiple activities (chain 1 HNARKYLEFISQKIDGDKLTKEDSL; chain 2 HNARKYLEFISQKIDGDKLTKEDSL; Peptide with targeting and/or antimicrobial activity),MRSA (M),S. epidermidis (D),M. luteus and MRSA and E. faecalis and C. jejuni,G B,,
PF-034: peptide having multiple activities (chain 1 EPKKKHFPKMESASSEP; chain 2 EPKKKHFPKMESASSEP; Peptide with targeting and/or antimicrobial activity),,S. epidermidis (A),M. luteus,G B,,
PF-123: peptide having multiple activities (TTRPQVAEDRQLDDALKETFPASDPISP; Peptide with targeting and/or antimicrobial activity),,S. epidermidis (M),,G B,M. luteus; also recorded: E. coli,
PF-180: peptide having multiple activities (SGLGDLGFSSEAK; Peptide with targeting and/or antimicrobial activity),,S. epidermidis (C),,G B,S. epidermidis and M. luteus and P. aeruginosa and C. albicans and MRSA and E. faecalis and C. jejuni and M. smegmatis,
PF-192: peptide having multiple activities (VEEDEAPPPHY; Peptide with targeting and/or antimicrobial activity),,S. epidermidis (D),,G B,S. epidermidis; also recorded: M. luteus; also recorded: P. aeruginosa; also recorded: C. albicans; also recorded: E. faecalis; also recorded: C. jeikeium,
PF-233: peptide having multiple activities (DANAMARTTIAIVYILALIALTISYSL; Peptide with targeting and/or antimicrobial activity),,S. epidermidis (C),,G B,S. epidermidis; also recorded: M. luteus; also recorded: P. aeruginosa; also recorded: A. baumannii,
PF-273: peptide having multiple activities (LVGALLIFVALIYMVLKGNADKN; Peptide with targeting and/or antimicrobial activity),,S. epidermidis (C),,G B,S. epidermidis; also recorded: M. luteus; also recorded: P. aeruginosa; also recorded: A. baumannii,
PF-294: peptide having multiple activities (DFLVNFLWFKGELNWGKKRYK; Peptide with targeting and/or antimicrobial activity),,S. epidermidis (C),,G B,S. epidermidis; also recorded: C. difficile,
PF-313: peptide having multiple activities (YITSHKNARAIIKKFERDEILEEVITHYLNRK; Peptide with targeting and/or antimicrobial activity),,S. epidermidis (C),,G B,S. epidermidis; also recorded: C. difficile,
PF-397: peptide having multiple activities (VEDLMEDLNA; Peptide with targeting and/or antimicrobial activity),,S. epidermidis (C),,G B,,S. epidermidis and MRSA and S. pneumoniae and E. faecalis and C. jejuni
